Results taken from US20100204141A1, “USE OF BPP-B AS A THERAPEUTIC AGENT” (priority 2007, published 2010).
Square brackets hold non-standard residues; d marks the D form. Peptide text beside a SMILES is read from it. pGlu = O=C1CC[C@@H](C(=O)O)N1

Tested on: drug-resistant Mycobacterium tuberculosis
Conditions: 5 micrograms per ml

## CC[C@H](C)[C@H](NC(=O)[C@H](CCCCN)NC(=O)[C@@H]1CCCN1C(=O)[C@H](CCCNC(=N)N)NC(=O)[C@@H]1CCCN1C(=O)[C@@H]1CCCN1C(=O)[C@H](CC(C)C)NC(=O)CNC(=O)[C@@H]1CCC(=O)N1)C(=O)N1CCC[C@H]1C(=O)N1CCC[C@H]1C(=O)O [Bradykinin potentiator B, Pyr-Gly-Leu-Pro-Pro-Arg-Pro-Lys-Ile-Pro-Pro-OH] ([pGlu]GLPPRPKIPP-OH)
  % inhibition: 0.0%
